From patent US10405547B2, “Substituted cyclic amides as herbicides” (FMC Corporation, priority 2015, dated 2019)

Columns and labels:
Assay type in all cases: in vivo
[1] = tested on: ragweed (common ragweed, Ambrosia elatior); test: Test A preemergence, ragweed; conditions: 0 to 100 scale (0 no effect, 100 complete control)
Excerpt: (§1) Test A Seeds of plant species selected from barnyardgrass (Echinochloa crus-galli), kochia (Kochia scoparia), ragweed (common ragweed, Ambrosia elatior), ryegrass, Italian (Lolium multiflorum), foxtail, giant (Setaria faberii), and pigweed (Amaranthus retroflexus), were planted into a blend of loam soil and sand and treated preemergence with a directed soil spray using test chemicals formulated in a non-phytotoxic solvent mixture which included a surfactant.
(§2) At the same time, plants selected from these weed species and also blackgrass (Alopecurus myosuroides), galium (catchweed bedstraw, Galium aparine), wheat (Triticum aestivum), and corn (Zea mays) were planted in pots containing the same blend of loam soil and sand and treated with postemergence applications of test chemicals formulated in the same manner. Plants ranged in height from 2 to 10 cm and were in the one- to two-leaf stage for the postemergence treatment. Treated plants and untreated controls were maintained in a greenhouse for approximately 10 days, after which time all treated plants were compared to untreated controls and visually evaluated for injury. Plant response ratings, summarized in Table A, are based on a 0 to 100 scale where 0 is no effect and 100 is complete control. A dash (-) response means no test result.

[2] = tested on: galium (catchweed bedstraw, Galium aparine); test: Test A postemergence, galium; conditions: visual injury, 0 to 100 scale (0 no effect, 100 complete control), approximately 10 days
Excerpt: as §1, §2

[3] = tested on: ryegrass, Italian (Lolium multiflorum); test: Test A preemergence, Italian ryegrass; conditions: 0 to 100 scale (0 no effect, 100 complete control)
Excerpt: as §1, §2

[4] = tested on: wheat (Triticum aestivum); test: Test A postemergence, wheat; conditions: visual injury, 0 to 100 scale (0 no effect, 100 complete control), approximately 10 days
Excerpt: as §1, §2

[5] = tested on: pigweed (Amaranthus retroflexus); test: Test A postemergence, pigweed; conditions: visual injury, 0 to 100 scale (0 no effect, 100 complete control), approximately 10 days
Excerpt: as §1, §2

[6] = tested on: blackgrass (Alopecurus myosuroides); test: Test A postemergence, blackgrass; conditions: visual injury, 0 to 100 scale (0 no effect, 100 complete control), approximately 10 days
Excerpt: as §1, §2

kochia (Kochia scoparia) [7] = test: Test A postemergence, kochia; conditions: visual injury, 0 to 100 scale (0 no effect, 100 complete control), approximately 10 days
Excerpt: as §1, §2

[8] = tested on: pigweed (Amaranthus retroflexus); test: Test A preemergence, pigweed; conditions: 0 to 100 scale (0 no effect, 100 complete control)
Excerpt: as §1, §2

[9] = tested on: foxtail, giant (Setaria faberii); test: Test A postemergence, giant foxtail; conditions: visual injury, 0 to 100 scale (0 no effect, 100 complete control), approximately 10 days
Excerpt: as §1, §2

[10] = tested on: barnyardgrass (Echinochloa crus-galli); test: Test A postemergence, barnyardgrass; conditions: visual injury, 0 to 100 scale (0 no effect, 100 complete control), approximately 10 days
Excerpt: as §1, §2

[11] = tested on: barnyardgrass (Echinochloa crus-galli); test: Test A preemergence, barnyardgrass; conditions: 0 to 100 scale (0 no effect, 100 complete control)
Excerpt: as §1, §2

corn (Zea mays) = test: Test A postemergence, corn; conditions: visual injury, 0 to 100 scale (0 no effect, 100 complete control), approximately 10 days
Excerpt: as §1, §2

[12] = tested on: foxtail, giant (Setaria faberii); test: Test A preemergence, giant foxtail; conditions: 0 to 100 scale (0 no effect, 100 complete control)
Excerpt: as §1, §2

[13] = tested on: ragweed (common ragweed, Ambrosia elatior); test: Test A postemergence, ragweed; conditions: visual injury, 0 to 100 scale (0 no effect, 100 complete control), approximately 10 days
Excerpt: as §1, §2

kochia (Kochia scoparia) [14] = test: Test A preemergence, kochia; conditions: 0 to 100 scale (0 no effect, 100 complete control)
Excerpt: as §1, §2

[15] = tested on: ryegrass, Italian (Lolium multiflorum); test: Test A postemergence, Italian ryegrass; conditions: visual injury, 0 to 100 scale (0 no effect, 100 complete control), approximately 10 days
Excerpt: as §1, §2

SMILES | Plant response rating, Ragweed ([1]; 125 g ai/ha) | Plant response rating, Ragweed ([1]; 500 g ai/ha) | Plant response rating, Galium ([2]; 125 g ai/ha) | Plant response rating, Galium ([2]; 500 g ai/ha) | Plant response rating, Ryegrass, Italian ([3]; 125 g ai/ha) | Plant response rating, Ryegrass, Italian ([3]; 500 g ai/ha) | Plant response rating, Wheat ([4]; 125 g ai/ha) | Plant response rating, Wheat ([4]; 500 g ai/ha) | Plant response rating, Pigweed ([5]; 125 g ai/ha) | Plant response rating, Pigweed ([5]; 500 g ai/ha) | Plant response rating, Blackgrass ([6]; 125 g ai/ha) | Plant response rating, Blackgrass ([6]; 500 g ai/ha) | Plant response rating, Kochia (kochia (Kochia scoparia) [7]; 125 g ai/ha) | Plant response rating, Kochia (kochia (Kochia scoparia) [7]; 500 g ai/ha) | Plant response rating, Pigweed ([8]; 125 g ai/ha) | Plant response rating, Pigweed ([8]; 500 g ai/ha) | Plant response rating, Foxtail, Giant ([9]; 125 g ai/ha) | Plant response rating, Foxtail, Giant ([9]; 500 g ai/ha) | Plant response rating, Barnyardgrass ([10]; 125 g ai/ha) | Plant response rating, Barnyardgrass ([10]; 500 g ai/ha) | further results
O=C1NCC(c2cccc(COc3ccccc3)c2)C1C(=O)Nc1ccc(F)c(F)c1F (stereo not drawn) [Compound 17] | 0 | 0 | 50 | 30 | 0 | 0 | 0 | 0 | 0 | 0 | 0 | 0 | 0 | 0 | 0 | 0 | 30 | 40 | 30 | 40 | Plant response rating, Barnyardgrass ([11]; 125 g ai/ha): 20; Plant response rating, Barnyardgrass ([11]; 500 g ai/ha): 70; Plant response rating, Corn (corn (Zea mays); 125 g ai/ha): 0; Plant response rating, Corn (corn (Zea mays); 500 g ai/ha): 0; Plant response rating, Foxtail, Giant ([12]; 125 g ai/ha): 50; Plant response rating, Foxtail, Giant ([12]; 500 g ai/ha): 80; Plant response rating, Ragweed ([13]; 125 g ai/ha): 0; Plant response rating, Ragweed ([13]; 500 g ai/ha): 0; Plant response rating, Kochia (kochia (Kochia scoparia) [14]; 125 g ai/ha): 0; Plant response rating, Kochia (kochia (Kochia scoparia) [14]; 500 g ai/ha): 30; Plant response rating, Ryegrass, Italian ([15]; 125 g ai/ha): 0; Plant response rating, Ryegrass, Italian ([15]; 500 g ai/ha): 0
O=C1NCC(c2cccc(COc3ccccc3)c2)C1C(=O)Nc1ccccc1Cl (stereo not drawn) [Compound 18] | 0 | 0 | 0 | 0 | 0 | 0 | 0 | 0 | 0 | 0 | 0 | 0 | 0 | 0 | 0 | 0 | 0 | 0 | 0 | 20 | Plant response rating, Barnyardgrass ([11]; 125 g ai/ha): 0; Plant response rating, Barnyardgrass ([11]; 500 g ai/ha): 0; Plant response rating, Corn (corn (Zea mays); 125 g ai/ha): 0; Plant response rating, Corn (corn (Zea mays); 500 g ai/ha): 0; Plant response rating, Foxtail, Giant ([12]; 125 g ai/ha): 0; Plant response rating, Foxtail, Giant ([12]; 500 g ai/ha): 20; Plant response rating, Ragweed ([13]; 125 g ai/ha): 0; Plant response rating, Ragweed ([13]; 500 g ai/ha): 0; Plant response rating, Kochia (kochia (Kochia scoparia) [14]; 125 g ai/ha): 0; Plant response rating, Kochia (kochia (Kochia scoparia) [14]; 500 g ai/ha): 0; Plant response rating, Ryegrass, Italian ([15]; 125 g ai/ha): 0; Plant response rating, Ryegrass, Italian ([15]; 500 g ai/ha): 0
O=C1NCC(c2cccc(COc3ccccc3)c2)C1C(=O)Nc1ccccc1F (stereo not drawn) [Compound 19] | 0 | 0 | 0 | 0 | 0 | 0 | 0 | 0 | 0 | 0 | 0 | 0 | 0 | 0 | 0 | 0 | 20 | 40 | 20 | 50 | Plant response rating, Barnyardgrass ([11]; 125 g ai/ha): 30; Plant response rating, Barnyardgrass ([11]; 500 g ai/ha): 70; Plant response rating, Corn (corn (Zea mays); 125 g ai/ha): 0; Plant response rating, Corn (corn (Zea mays); 500 g ai/ha): 0; Plant response rating, Foxtail, Giant ([12]; 125 g ai/ha): 30; Plant response rating, Foxtail, Giant ([12]; 500 g ai/ha): 80; Plant response rating, Ragweed ([13]; 125 g ai/ha): 0; Plant response rating, Ragweed ([13]; 500 g ai/ha): 0; Plant response rating, Kochia (kochia (Kochia scoparia) [14]; 125 g ai/ha): 0; Plant response rating, Kochia (kochia (Kochia scoparia) [14]; 500 g ai/ha): 40; Plant response rating, Ryegrass, Italian ([15]; 125 g ai/ha): 0; Plant response rating, Ryegrass, Italian ([15]; 500 g ai/ha): 0
O=C1NCC(c2cccc(COc3ccccc3)c2)C1C(=O)Nc1ccc(F)cc1F (stereo not drawn) [Compound 20] | 0 | 0 | 0 | 0 | 0 | 0 | 0 | 0 | 0 | 0 | 0 | 0 | 0 | 0 | 0 | 0 | 40 | 60 | 40 | 70 | Plant response rating, Barnyardgrass ([11]; 125 g ai/ha): 20; Plant response rating, Barnyardgrass ([11]; 500 g ai/ha): 70; Plant response rating, Corn (corn (Zea mays); 125 g ai/ha): 0; Plant response rating, Corn (corn (Zea mays); 500 g ai/ha): 0; Plant response rating, Foxtail, Giant ([12]; 125 g ai/ha): 30; Plant response rating, Foxtail, Giant ([12]; 500 g ai/ha): 80; Plant response rating, Ragweed ([13]; 125 g ai/ha): 0; Plant response rating, Ragweed ([13]; 500 g ai/ha): 0; Plant response rating, Kochia (kochia (Kochia scoparia) [14]; 125 g ai/ha): 0; Plant response rating, Kochia (kochia (Kochia scoparia) [14]; 500 g ai/ha): 30; Plant response rating, Ryegrass, Italian ([15]; 125 g ai/ha): 0; Plant response rating, Ryegrass, Italian ([15]; 500 g ai/ha): 0
O=C1NCC(c2cccc(COc3ccccc3)c2)C1C(=O)Nc1cccc(F)c1F (stereo not drawn) [Compound 21] | 0 | 0 | 0 | 0 | 0 | 0 | 0 | 0 | 0 | 0 | 0 | 0 | 0 | 0 | 0 | 0 | 30 | 30 | 20 | 20 | Plant response rating, Barnyardgrass ([11]; 125 g ai/ha): 0; Plant response rating, Barnyardgrass ([11]; 500 g ai/ha): 40; Plant response rating, Corn (corn (Zea mays); 125 g ai/ha): 0; Plant response rating, Corn (corn (Zea mays); 500 g ai/ha): 0; Plant response rating, Foxtail, Giant ([12]; 125 g ai/ha): 20; Plant response rating, Foxtail, Giant ([12]; 500 g ai/ha): 60; Plant response rating, Ragweed ([13]; 125 g ai/ha): 0; Plant response rating, Ragweed ([13]; 500 g ai/ha): 0; Plant response rating, Kochia (kochia (Kochia scoparia) [14]; 125 g ai/ha): 0; Plant response rating, Kochia (kochia (Kochia scoparia) [14]; 500 g ai/ha): 20; Plant response rating, Ryegrass, Italian ([15]; 125 g ai/ha): 0; Plant response rating, Ryegrass, Italian ([15]; 500 g ai/ha): 0
O=C1NCC(c2cccc(Cn3cccn3)c2)C1C(=O)Nc1ccc(F)c(F)c1F (stereo not drawn) [Compound 26] | 0 | 0 | 0 | 0 | 0 | 0 | 0 | 0 | 0 | 0 | 0 | 0 | 0 | 0 | 0 | 0 | 30 | 60 | 30 | 70 | Plant response rating, Barnyardgrass ([11]; 125 g ai/ha): 40; Plant response rating, Barnyardgrass ([11]; 500 g ai/ha): 90; Plant response rating, Corn (corn (Zea mays); 125 g ai/ha): 0; Plant response rating, Corn (corn (Zea mays); 500 g ai/ha): 0; Plant response rating, Foxtail, Giant ([12]; 125 g ai/ha): 40; Plant response rating, Foxtail, Giant ([12]; 500 g ai/ha): 90; Plant response rating, Ragweed ([13]; 125 g ai/ha): 0; Plant response rating, Ragweed ([13]; 500 g ai/ha): 0; Plant response rating, Kochia (kochia (Kochia scoparia) [14]; 125 g ai/ha): 0; Plant response rating, Kochia (kochia (Kochia scoparia) [14]; 500 g ai/ha): 0; Plant response rating, Ryegrass, Italian ([15]; 125 g ai/ha): 0; Plant response rating, Ryegrass, Italian ([15]; 500 g ai/ha): 0
